Data published in US8765692B2, “Modified-galactosyl ceramides for staining and stimulating natural killer T cells” (The Scripps Research Institute, priority 2006, dated 2014).

Experiments:
Solubility in DMSO = type: physicochemical; details: for solubility: 20 °C, organic solvent or mixture; for solubility (in words): relative to KRN7000 or fully saturated compounds
Protocol: As with most glycolipids, solubility issues are central to handling the compounds. Compounds are usually solubilized in DMSO, and then diluted to working concentrations in aqueous solutions. […] In suitable embodiments, the compounds of the invention are at least about 10 mg/mL in DMSO under ambient conditions (approximately 20° C.). In more suitable embodiments, the compounds of the invention are at least about 20 mg/mL in DMSO at ambient temperature. In further suitable embodiments, the compounds of the invention are at least 80%, at least two-fold, or at least 4-fold relative to the solubility of KRN7000 in DMSO at ambient temperature.

[1] = test system: NKT cells (B6 mouse splenocytes); experiment: Cytokine release in vitro from mouse splenocytes (IL-4 and IFNγ ELISA); type: cell-based; details: for concentration at which cytokine responses plateau: 5×10^5 B6 splenocytes, IL-4 and IFNγ ELISA, FIG. 6
Protocol: To determine if PBS-57 stimulated cytokine release by NKT cells in vitro, 5×10^5 mouse splenocytes isolated from B6 mice were incubated in separate wells with 10^5, 10^4, 10^3, 100, 10 and 1 pg/mL of PBS-57 or KRN7000 in RPMI 1640 media supplemented with 10% FBS, 50 μM 2-mercaptoethanol, 2 mM glutamine and antibiotics. After 48 hours, IL-4 and IFNγ levels were measured by ELISA (BD Pharmingen).

Vα14i NKT cells = experiment: Staining of Vα14i NKT cells with glycolipid-loaded mouse CD1d tetramers (flow cytometry); type: cell-based; details: summary statement, compared with KRN7000
Protocol: An typical means to isolate and quantify CD1 responsive NKT cells is through flow cytometry using fluorophore tagged CD1d tetramers loaded with sphingoglycolipids. To test for the ability of PBS-57 to facilitate CD1d tetramer staining, glycolipid-loaded CD1d tetramers were formed. Biotinylated mouse sCD1d molecules (in PBS) were mixed with PBS-57 or KRN7000 at a molar ratio of 1:3 (protein:lipid) and incubated overnight at room temperature. The following day, 80 μg of streptavidin-PE (Pharmagen) was added to 200 μg of the CD1-glycolipid mix and incubated at room temperature for 4 hours. Tetramers were stored at 4° C. until use.
Single cell suspensions of thymocytes and splenocytes were isolated from C57BL/6J mice (Jackson Laboratories, Bar Harbor, Me.) as known in the art. The TCR repertoire of the NKT cells was limited with an invariable Vα subunit (Vα14 in mice) and varied Vβ subunits. 10^6 cells were incubated with 200 μL staining media (2% BSA, 1% NaN3, 10 mM EDTA in PBS) with 2.4G2 (1:100; ATCC, Manassas, Va.) and Neutravidin (5 μg/200 μl; Molecular Probes, Eugene, Oreg.) for 20 minutes on ice. […] Cells were washed twice in staining media, fixed with 1% paraformaldehyde in PBS and analyzed by flow cytometry.

NKT cell hybridomas = experiment: Binding of PBS-57 loaded CD1d tetramers to NKT cell hybridomas expressing different Vβ; type: cell-based; details: hybridomas with different Vβ TCR, 37° C. 4 hours, FIG. 4
Protocol: The TCR expressed on NKT cells are limited to a invariant Vα subunit, and a variable Vβ subunit that respond to glycolipid presentation by CD1d. To determine if PBS-57 loaded tetramers were Vβ subunit specific in their ability to bind, NKT cell hybridomas expressing different Vβ were tested for their ability to bind PBS-57 loaded CD1d tetramers.
For staining of NKT cell hybridomas, soluble CD1d (sCD1d) tetramers were loaded with PBS-57 or KRN7000 by the following procedure. Stock reagents of the following were prepared: sCD1d (1 mg/ml in phosphate buffer saline (PBS)); PBS-57 (1 mg/ml in DMSO); Tween 20 (0.5% in PBS); and streptavidin-APC (80 μg/mL in PBS). 10 μL sCD1d stock, 1 μL PBS-57 stock, and 10 μL Tween 20 stock were mixed, and 79 μL PBS was added to bring the volume up to 100 μL. […] To separate unbound glycolipid, the mixture was applied to a Microcon YM30 filter (Millipore) that has been previously wetted with PBS (400 μL). The loaded membrane was centrifuged until only ˜10 μL of solution remained. The volume was then increased to 100 μL by addition of PBS. The solution was agitated to aid in freeing the protein from the filter. The Microcon unit was inverted into a fresh Eppendorf tube and the contents were centrifuged into the tube. A 10 μL aliquot of the solution was removed and the streptavidin-APC solution (5 μL) was added. […]

NKT cells [2] = experiment: CD1d tetramer staining of NKT cells in human blood samples; type: cell-based; details: PBS-57 loaded mouse and human CD1d tetramers
Description: (§1) To test whether PBS-57 could facilitate NKT cell binding in blood samples of both human and non-human primates, mouse and human CD1d tetramers were loaded with PBS-57 as described in Example 2. A majority of the human blood samples contained sufficient NKT cells (>0.08% of CD3-positive cells) to observe staining (14 out of 17 samples), while some samples may have contained too few NKT cells to allow detection of staining (Lee et al., 2002).

NKT cells [3] = experiment: CD1d tetramer staining of NKT cells in chimpanzee blood samples; type: cell-based; details: PBS-57 loaded CD1d tetramers
Description: as §1

NKT cells [4] = experiment: CD1d tetramer staining of NKT cells in rhesus macaque blood samples; type: cell-based; details: rhesus macaques, 12 samples
Description: as §1

NKT cells [5] = experiment: CD1d tetramer staining of NKT cells in pigtail macaque blood samples; type: cell-based; details: pigtail macaques
Description: as §1

NKT cells [6] = experiment: CD1d tetramer staining of NKT cells in sooty mangabey blood samples; type: cell-based; details: sooty mangabeys
Description: as §1

NKT cells [7] = experiment: Cytokine release in vivo: serum INF-γ after intravenous injection; parameters: species or system mouse
Protocol: To examine if PBS-57 elicited an immune response in vivo, the ability of PBS-57 and KRN7000 to elicit an increase in cytokine levels in a mouse was assayed. 1 mg/ml stock solutions of PBS-57 and KRN7000 in DMSO were prepared. The PBS-57 and KRN7000 solutions were diluted with PBS to 1, 100, 10^4, and 10^6 pg/mL. 100 μL of each solution was injected intravenously into 6 week-old B6 mice. Serum samples were isolated from the mice at 24 hours, and the concentration of INF-γ was assayed by ELISA (BD Pharmingen).

Row | solubility (Solubility in DMSO) | solubility (Solubility in DMSO; molar value printed in parentheses) | SMILES | solubility (in words) (Solubility in DMSO) | concentration at which cytokine responses plateau ([1]; 48 hours) | staining of mouse and human NKT cells (summary) (Vα14i NKT cells) | effect of Vβ subunit variation on binding of loaded CD1d tetramers (NKT cell hybridomas) | blood samples with observable NKT cell staining (NKT cells [2]) | blood samples with significant NKT cell staining (NKT cells [3]) | share of blood samples with significant NKT cell staining (NKT cells [4]) | NKT cell staining in blood samples (NKT cells [5]) | NKT cell staining in blood samples (NKT cells [6]) | Th1 and Th2 cytokine secretion ([1]; B6 splenocytes, 48 hours) | NKT cell stimulation in vitro relative to KRN7000 ([1]; summary statement, in vitro) | serum INF-γ concentration relative to KRN7000 (NKT cells [7]; B6 mice, intravenous, 100 μL of 1 to 10^6 pg/mL, serum at 24 hours, FIG. 7) | NKT cell stimulation in vivo relative to KRN7000 (NKT cells [7]; summary statement, in vivo)
1 | < 5 mg/mL | – | CCCCCCCCCCCCCCCCCCCCCCCCCC(=O)N[C@@H](CO[C@H]1O[C@H](CO)[C@H](O)[C@H](O)[C@H]1O)[C@H](O)[C@H](O)CCCCCCCCCCCCCC [KRN7000, reference compound] | relatively poor solubility in either aqueous or organic solvents | ~1000 pg/mL | – | – | – | – | – | – | – | – | – | – | –
2 | 20 mg/mL | 22.4 mM | CCCCCCCCC=CCCCCCCCCCCCCCC(=O)N[C@@H](OC1OC(CNC(C)=O)C(O)C(O)C1O)C(O)[C@H](O)CCCCCCCCCCCCCC (stereo partly drawn) [PBS-57] | relatively high solubility | approximately 100 pg/mL | as well as KRN7000 | did not affect the binding | 14 out of 17 | 6 out of 10 | one quarter | No staining | No staining | able to induce both Th1 and Th2 cytokine secretion | stimulates NKT cells more effectively than KRN7000 | equal to or greater than KRN7000 | stimulates NKT cells more effectively than KRN7000
